In paper PMC5064435, “Inhibition of endoplasmic reticulum glucosidases is required for in vitro and in vivo dengue antiviral activity by the iminosugar UV-4” (Antiviral Research, 2016):
Counter-ions that a name gives are not always drawn.

How the values were obtained:
[1] = target: T1, Human lysosome (α-galactosidase) (Homo sapiens, UniProt P06280); assay: enzyme inhibition assay; format: biochemical; conditions: read-out: IC50 ^a / UV-4B
T1 construct: gene GLA
T1 sequence (P06280 32-429): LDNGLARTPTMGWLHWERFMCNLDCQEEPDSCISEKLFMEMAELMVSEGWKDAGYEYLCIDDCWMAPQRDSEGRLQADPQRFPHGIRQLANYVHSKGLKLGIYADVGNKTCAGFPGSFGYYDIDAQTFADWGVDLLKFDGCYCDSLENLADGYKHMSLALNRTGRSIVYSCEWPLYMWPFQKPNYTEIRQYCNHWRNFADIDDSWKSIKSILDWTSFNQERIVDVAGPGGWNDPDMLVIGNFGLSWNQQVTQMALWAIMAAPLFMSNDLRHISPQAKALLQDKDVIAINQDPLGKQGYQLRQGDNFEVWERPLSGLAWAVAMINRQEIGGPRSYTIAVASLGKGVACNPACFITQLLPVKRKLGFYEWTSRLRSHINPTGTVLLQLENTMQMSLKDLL
Description: enzyme inhibition assay on Human lysosome (α-galactosidase)

Rat intestinal sucrase = target: T2, Rat intestinal sucrase (Rattus norvegicus, UniProt P23739); assay: enzyme inhibition assay; format: biochemical; conditions: read-out: IC50 ^a / UV-4B
T2 construct: gene Si; native rat intestinal enzyme; sucrase (C-terminal) subunit of sucrase-isomaltase
T2 sequence (P23739 1014-1841 limits assumed): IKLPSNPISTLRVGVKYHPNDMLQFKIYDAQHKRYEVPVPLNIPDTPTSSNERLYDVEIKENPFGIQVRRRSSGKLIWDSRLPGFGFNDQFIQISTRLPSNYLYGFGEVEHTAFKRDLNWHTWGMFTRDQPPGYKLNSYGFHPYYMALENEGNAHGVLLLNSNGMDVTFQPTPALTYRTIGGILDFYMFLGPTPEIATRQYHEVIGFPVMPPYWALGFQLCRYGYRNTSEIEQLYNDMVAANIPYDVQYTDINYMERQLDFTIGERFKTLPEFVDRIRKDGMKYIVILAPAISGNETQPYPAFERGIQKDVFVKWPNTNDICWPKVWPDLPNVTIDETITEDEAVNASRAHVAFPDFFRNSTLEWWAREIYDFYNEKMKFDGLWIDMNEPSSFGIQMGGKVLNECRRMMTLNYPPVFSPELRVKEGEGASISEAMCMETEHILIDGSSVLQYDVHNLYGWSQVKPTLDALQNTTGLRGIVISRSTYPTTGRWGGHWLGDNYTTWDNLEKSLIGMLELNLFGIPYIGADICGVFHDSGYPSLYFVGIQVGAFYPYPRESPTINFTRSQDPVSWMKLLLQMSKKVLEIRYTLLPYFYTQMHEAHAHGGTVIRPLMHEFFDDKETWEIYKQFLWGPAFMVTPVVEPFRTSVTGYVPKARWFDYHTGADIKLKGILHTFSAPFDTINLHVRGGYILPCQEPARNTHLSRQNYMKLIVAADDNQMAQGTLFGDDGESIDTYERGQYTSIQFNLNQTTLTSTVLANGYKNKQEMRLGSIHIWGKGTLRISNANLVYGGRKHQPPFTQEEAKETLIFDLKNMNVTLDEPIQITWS
Description: enzyme inhibition assay on Rat intestinal sucrase

[2] = target: T3, Human lysosome (α-glucosidase) (Homo sapiens, UniProt P10253); assay: enzyme inhibition assay; format: biochemical; conditions: read-out: IC50 ^a / UV-4B
T3 construct: gene GAA
Description: enzyme inhibition assay on Human lysosome (α-glucosidase)

[3] = target: T4, α-glucosidase I (human MDMΦs) (Homo sapiens, UniProt Q13724); assay: free oligosaccharide (Glc3Man5GlcNAc1) accumulation in human MDMΦs; format: cell-based; conditions: […] h treatment of uninfected cells
T4 construct: gene MOGS; endogenous enzyme in primary human monocyte-derived macrophages
T4 sequence (Q13724 1-837): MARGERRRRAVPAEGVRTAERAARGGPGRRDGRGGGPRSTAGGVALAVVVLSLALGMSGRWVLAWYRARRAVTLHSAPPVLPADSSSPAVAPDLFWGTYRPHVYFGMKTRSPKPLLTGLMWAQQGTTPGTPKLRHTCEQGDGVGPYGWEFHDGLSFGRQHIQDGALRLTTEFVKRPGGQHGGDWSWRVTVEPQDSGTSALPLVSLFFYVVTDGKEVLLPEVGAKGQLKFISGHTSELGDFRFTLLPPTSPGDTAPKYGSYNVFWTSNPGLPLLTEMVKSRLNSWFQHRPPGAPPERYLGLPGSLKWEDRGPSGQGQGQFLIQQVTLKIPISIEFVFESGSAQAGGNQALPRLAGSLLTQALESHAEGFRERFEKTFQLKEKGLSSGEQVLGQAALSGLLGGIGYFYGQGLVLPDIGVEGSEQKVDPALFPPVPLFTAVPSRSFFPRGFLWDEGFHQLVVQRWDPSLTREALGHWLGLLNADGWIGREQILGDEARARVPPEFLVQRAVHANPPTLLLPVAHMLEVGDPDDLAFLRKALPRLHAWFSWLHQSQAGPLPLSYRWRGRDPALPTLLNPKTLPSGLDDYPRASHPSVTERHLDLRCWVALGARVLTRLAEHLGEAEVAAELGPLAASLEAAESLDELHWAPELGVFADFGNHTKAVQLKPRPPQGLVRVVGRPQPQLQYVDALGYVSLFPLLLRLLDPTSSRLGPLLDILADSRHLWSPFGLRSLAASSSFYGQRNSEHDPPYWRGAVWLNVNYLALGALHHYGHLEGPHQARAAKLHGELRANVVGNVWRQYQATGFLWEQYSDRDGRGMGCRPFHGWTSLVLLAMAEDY

[4] = target: T5, Rat intestinal isomaltase (Rattus norvegicus, UniProt P23739); assay: enzyme inhibition assay; format: biochemical; conditions: read-out: IC50 ^a / UV-4B
T5 construct: gene Si; native rat intestinal enzyme; isomaltase (N-terminal) subunit of sucrase-isomaltase
T5 sequence (P23739 1-1013 limits assumed): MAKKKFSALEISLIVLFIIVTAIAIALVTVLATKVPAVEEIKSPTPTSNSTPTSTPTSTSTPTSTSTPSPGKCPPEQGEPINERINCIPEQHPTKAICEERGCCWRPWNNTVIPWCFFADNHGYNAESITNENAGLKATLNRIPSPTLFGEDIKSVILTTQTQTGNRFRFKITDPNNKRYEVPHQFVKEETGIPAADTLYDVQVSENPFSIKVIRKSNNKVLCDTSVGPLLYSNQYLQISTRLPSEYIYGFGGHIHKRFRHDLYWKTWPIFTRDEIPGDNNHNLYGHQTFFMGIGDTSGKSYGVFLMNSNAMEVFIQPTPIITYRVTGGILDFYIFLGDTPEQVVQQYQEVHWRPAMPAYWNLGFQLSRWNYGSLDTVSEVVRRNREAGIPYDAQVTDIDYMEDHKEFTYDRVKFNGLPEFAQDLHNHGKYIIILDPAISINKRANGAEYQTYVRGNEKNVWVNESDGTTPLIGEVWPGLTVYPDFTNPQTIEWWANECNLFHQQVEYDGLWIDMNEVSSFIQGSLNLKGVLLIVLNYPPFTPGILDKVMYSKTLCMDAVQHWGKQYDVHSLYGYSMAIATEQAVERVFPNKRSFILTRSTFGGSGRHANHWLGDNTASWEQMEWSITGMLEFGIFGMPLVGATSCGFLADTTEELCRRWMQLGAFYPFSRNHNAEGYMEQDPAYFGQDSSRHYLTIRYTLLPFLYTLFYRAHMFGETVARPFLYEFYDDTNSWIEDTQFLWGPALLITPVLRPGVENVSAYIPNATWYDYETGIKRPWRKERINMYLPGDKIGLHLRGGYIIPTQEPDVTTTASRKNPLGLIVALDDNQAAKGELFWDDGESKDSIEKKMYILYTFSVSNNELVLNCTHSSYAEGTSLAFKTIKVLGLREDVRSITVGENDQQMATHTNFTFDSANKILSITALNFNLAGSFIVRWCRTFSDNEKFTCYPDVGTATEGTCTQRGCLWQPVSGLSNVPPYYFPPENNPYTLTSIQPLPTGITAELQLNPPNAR
Description: enzyme inhibition assay on Rat intestinal isomaltase

`COCCCCCCCCCN1C[C@H](O)[C@@H](O)[C@H](O)[C@H]1CO` [UV-4B, N-(9′-methoxynonyl)-1-deoxynojirimycin hydrochloride] showed an IC50 [1] greater than 1000 µM, an IC50 (Rat intestinal sucrase) of 0.5 µM and an IC50 [2] of 0.39 µM. The “free oligosaccharide (Glc3Man5GlcNAc1) accumulation in human MDMΦs” value [3] was “UV-4B led to accumulation of FOS representative of inhibition of both α-glucosidases” and the IC50 [4] was 1.4 µM.
